# Assay results as given in patent US4421767A, “Compounds and methods for treating depression” (priority 1982, dated 1983).
# Where two headings read alike, the source gives them in different places.
# Assays:
# neuronal MAO [1] = assay: Ex vivo MAO activity after i.p. injection in rats, neuronal MAO; set-up: species or system rat
# Description: (§1) Rats were injected with AFHBA (0.5 mg/kg, i.p.) alone or with AFHBA (0.5 mg/kg, i.p.) in combination with MFMD (2.0 mg/kg, i.p.) administered 30 minutes before AFHBA. Animals were killed 18 hours later and MAO activity (5-HT and phenethylamine as substrates) was determined in brain, heart, and liver. In the brain, AFHBA administered alone inhibited neuronal MAO by 72% and non-neuronal MAO by 37%.
# (§2) III. Rats were injected with AFMBA (100 mg/kg, i.p.) and were killed 18 hours later. MAO activity was determined in the brain, heart, and liver using 5-HT and PEA.
# [2] = system: brain noradrenaline and 5-HT concentrations; assay: Brain amine concentration after 5 days oral MAO inhibitor in rats (Table I); assay type: in vivo, rat; details: for Brain Amine Concentration, Noradrenaline / Brain Amine Concentration, 5-HT: 5 days
# Description: On the 6th day, rats were anaesthetized and heart rate and blood pressure responses to tyramine (0.3-50 mg/kg) administered intraduodenally (i.d.) were determined. Additionally, monoamines and MAO activity were determined in various tissues including brain.
# [3] = system: dopamine, DOPAC, 5-HT, and 5-HIAA concentrations in the brain; assay: In vivo brain dopamine, DOPAC, 5-HT and 5-HIAA concentrations after oral dosing in rats; set-up: species or system rat; details: 18 hours
# Description: In a separate experiment, rats were given AFHBA orally at various doses. The rats were killed 18 hours later and dopamine, DOPAC, 5-HT, and 5-HIAA concentrations were determined in the brain.
# [4] = system: brain noradrenaline and 5-HT concentrations; assay: Brain amine concentration, AFHBA with or without carbidopa pretreatment in rats (Table II); assay type: in vivo, rat; details: for Brain Amine Concentration, 5-HT / Brain Amine Concentration, Noradrenaline: 5 days
# Description: (§3) (B) Rats were gavaged with saline or carbidopa given at dosage of 10 or 100 mg/kg. Thirty minutes later, the rats were gavaged with saline or AFHBA given at a dosage of 62.5 μg/kg. This treatment was repeated daily for 5 days. On the 6th day, the rats were anaesthetized and heart rate and blood pressure responses to tyramine (0.3-50 mg/kg, i.d.) were determined. Additionally, monoamines and MAO activity were determined in various tissues, including brain.
# non-neuronal MAO [5] = assay: Ex vivo brain MAO activity after oral gavage in rats, non-neuronal MAO; set-up: species or system rat; details: 18 hours
# Description: (§4) MAO activity was determined in the brain using 5-HT and phenethylamine (PEA) as substrates.
# neuronal MAO [6] = assay: Ex vivo brain MAO activity after oral gavage in rats, neuronal MAO; set-up: species or system rat; details: 18 hours
# Description: as §4
# [7] = system: heart rate and blood pressure responses to tyramine; assay type: in vivo, rat; details: for Tyramine Potentiation: 5 days, tyramine i.d.; for Tyramine Potentiation over and above that of carbidopa: figure in brackets
# Description: as §3
# [8] = system: partially purified hog kidney AADC; assay: In vitro decarboxylation by partially purified hog kidney AADC (HPLC); assay type: in vitro ADME; details: with 10 μM MFMD (AADC inhibitor)
# Description: (§5) AFHBA was incubated with partially purified hog kidney AADC at 37° for various times up to 2 hours.
# [9] = as above; assay type: in vitro ADME; details: pig; hog kidney AADC, 37°, 2 hours, DL-mixture, HPLC; read-out: decarboxylation to the corresponding allylamine
# Description: as §5
# non-neuronal MAO [10] = assay: Ex vivo MAO activity after i.p. injection in rats, non-neuronal MAO; set-up: species or system rat
# Description: as §1, §2
# [11] = system: heart rate and blood pressure responses to tyramine; assay: Potentiation of tyramine response after 5 days oral MAO inhibitor in rats (Table I); assay type: in vivo, rat; details: 5 days, tyramine i.d.
# Description: (A) Rats were gavaged daily for 5 days with saline or 2-amino-4-fluoro-3-(3'-hydroxyphenyl)-3-butenoic acid (AFHBA) at dosages of 15.6, 62.5, 250, or 1000 μg/kg or with clorgyline at dosages of 1250 or 5000 μg/kg. On the 6th day, rats were anaesthetized and heart rate and blood pressure responses to tyramine (0.3-50 mg/kg) administered intraduodenally (i.d.) were determined. Additionally, monoamines and MAO activity were determined in various tissues including brain.
# [12] = system: dopamine, DOPAC, 5-HT, and 5-HIAA concentrations in the brain; assay: In vivo brain dopamine, DOPAC, 5-HT and 5-HIAA concentrations after i.p. injection in rats; set-up: species or system rat
# Description: Rats were injected with AFHBA (0.5 mg/kg, i.p.) alone or with AFHBA (0.5 mg/kg, i.p.) in combination with MFMD (2 mg/kg, i.p.) or carbidopa (50 mg/kg, i.p.) given 30 minutes before the AFHBA. The rats were killed 18 hours later, and dopamine, DOPAC, 5-HT, and 5-HIAA concentrations were determined in the brain.
# MAO = assay: Ex vivo MAO activity in rats, protection by extracerebral AADC inhibitor; set-up: species or system rat; details: AFHBA 0.5 mg/kg i.p. + MFMD 2.0 mg/kg i.p. 30 min before, liver
# Description: as §1, §4
# [13] = AFHBA 0.5 mg/kg i.p. + MFMD 2.0 mg/kg i.p. 30 min before, brain
# [14] = AFHBA 0.5 mg/kg i.p. + MFMD 2.0 mg/kg i.p. 30 min before, heart
# [15] = AFHBA alone 0.5 mg/kg i.p., 18 hours, brain
# [16] = AFHBA alone 0.5 mg/kg i.p., 18 hours, heart
# [17] = AFHBA alone 0.5 mg/kg i.p., 18 hours, liver
# [18] = AFHBA 62.5 μg/kg + carbidopa 10 mg/kg
# [19] = carbidopa 10000 μg/kg + AFHBA 62.5 μg/kg daily p.o.
# [20] = carbidopa 100000 μg/kg + AFHBA 62.5 μg/kg daily p.o.
# [21] = saline + AFHBA 62.5 μg/kg daily p.o.
# [22] = AFHBA 0.5 mg/kg i.p. + MFMD 2 mg/kg i.p. 30 min before
# [23] = AFHBA 0.5 mg/kg i.p. + carbidopa 50 mg/kg i.p. 30 min before
# [24] = AFHBA alone 0.5 mg/kg i.p., 18 hours
smiles,measurement,setting,value
"NC(C(=O)O)C(=CF)c1cccc(O)c1 (racemic) [AFHBA, 2-Amino-4-fluoro-3-(3'-hydroxyphenyl)-3-butenoic acid]","inhibition of neuronal MAO, brain, MFMD pretreatment",neuronal MAO [1]; [13],68%
same,"inhibition of neuronal MAO, heart, MFMD pretreatment",neuronal MAO [1]; [14],18%
same,"inhibition of neuronal MAO, brain",neuronal MAO [1]; [15],72%
same,"inhibition of neuronal MAO, heart",neuronal MAO [1]; [16],52%
same,"MAO inhibition, liver (neuronal)",neuronal MAO [1]; [17],29%
same,"Brain Amine Concentration, Noradrenaline","[2]; AFHBA 15.6 μg/kg daily p.o., saline 318 ± 12",347 ± 9 ng/g
same,"Brain Amine Concentration, 5-HT","[2]; AFHBA 15.6 μg/kg daily p.o., saline 507 ± 18",530 ± 27 ng/g
same,"Brain Amine Concentration, 5-HT",[2]; AFHBA 62.5 μg/kg daily p.o.,531 ± 32 ng/g
same,"Brain Amine Concentration, Noradrenaline",[2]; AFHBA 62.5 μg/kg daily p.o.,391 ± 12 ng/g
same,"Brain Amine Concentration, 5-HT",[2]; AFHBA 250 μg/kg daily p.o.,1082 ± 98 ng/g
same,"Brain Amine Concentration, Noradrenaline",[2]; AFHBA 250 μg/kg daily p.o.,563 ± 23 ng/g
same,"Brain Amine Concentration, 5-HT",[2]; AFHBA 1000 μg/kg daily p.o.,1486 ± 67 ng/g
same,"Brain Amine Concentration, Noradrenaline",[2]; AFHBA 1000 μg/kg daily p.o.,650 ± 29 ng/g
same,brain noradrenaline and 5-HT concentrations (dose relation),[2]; subacute treatment,dose-related increases in brain noradrenaline and 5-HT concentrations
same,"% Change from Control, 5-HIAA",[3]; 0.5 mg/kg oral,-11%
same,"% Change from Control, 5-HT",[3]; 0.5 mg/kg oral,+26%
same,"% Change from Control, DOPAC",[3]; 0.5 mg/kg oral,-55%
same,"% Change from Control, 5-HIAA",[3]; 1.0 mg/kg oral,-23%
same,"% Change from Control, 5-HT",[3]; 1.0 mg/kg oral,+74%
same,"% Change from Control, DOPAC",[3]; 1.0 mg/kg oral,-72%
same,"% Change from Control, Dopamine",[3]; 1.0 mg/kg oral,+17%
same,"% Change from Control, 5-HIAA",[3]; 2.5 mg/kg oral,-41%
same,"% Change from Control, 5-HT",[3]; 2.5 mg/kg oral,+140%
same,"% Change from Control, DOPAC",[3]; 2.5 mg/kg oral,-79%
same,"% Change from Control, Dopamine",[3]; 2.5 mg/kg oral,+28%
same,"effect on brain monoamines, combination versus single agents",[4]; [18],at least equivalent to 250 μg/kg of AFHBA given alone or to 5000 μg/kg of clorgyline
same,"Brain Amine Concentration, 5-HT",[4]; [19],894 ± 25 ng/g
same,"Brain Amine Concentration, Noradrenaline",[4]; [19],694 ± 24 ng/g
same,"Brain Amine Concentration, 5-HT",[4]; [20],815 ± 35 ng/g
same,"Brain Amine Concentration, Noradrenaline",[4]; [20],327 ± 23 ng/g
same,"Brain Amine Concentration, 5-HT",[4]; [21],531 ± 32 ng/g
same,"Brain Amine Concentration, Noradrenaline",[4]; [21],391 ± 12 ng/g
same,"% Inhibition of MAO, Non-neuronal",non-neuronal MAO [5]; 0.5 mg/kg oral,41%
same,"% Inhibition of MAO, Non-neuronal",non-neuronal MAO [5]; 1.0 mg/kg oral,64%
same,"% Inhibition of MAO, Non-neuronal",non-neuronal MAO [5]; 2.5 mg/kg oral,83%
same,"% Inhibition of MAO, Neuronal",neuronal MAO [6]; 0.5 mg/kg oral,63%
same,"% Inhibition of MAO, Neuronal",neuronal MAO [6]; 1.0 mg/kg oral,71%
same,"% Inhibition of MAO, Neuronal",neuronal MAO [6]; 2.5 mg/kg oral,95%
same,"potentiation of the tyramine response, combination versus AFHBA alone",[7]; [18],the potentiation did not exceed that of AFHBA given alone
same,Tyramine Potentiation,[7]; [19],3.1
same,Tyramine Potentiation over and above that of carbidopa,[7]; carbidopa 10000 μg/kg + AFHBA 62.5 μg/kg,2.8
same,Tyramine Potentiation,[7]; [20],5.0
same,Tyramine Potentiation over and above that of carbidopa,[7]; carbidopa 100000 μg/kg + AFHBA 62.5 μg/kg,2.2
same,Tyramine Potentiation,[7]; [21],4.0
same,decarboxylation in the presence of MFMD,[8],no decarboxylation was observed
same,metabolised at 2 h,[9],50%
same,"inhibition of non-neuronal MAO, brain, MFMD pretreatment",non-neuronal MAO [10]; [13],28%
same,"inhibition of non-neuronal MAO, heart, MFMD pretreatment",non-neuronal MAO [10]; [14],4%
same,"inhibition of non-neuronal MAO, brain",non-neuronal MAO [10]; [15],37%
same,"inhibition of non-neuronal MAO, heart",non-neuronal MAO [10]; [16],44%
same,"MAO inhibition, liver (non-neuronal)",non-neuronal MAO [10]; [17],38%
same,Tyramine Potentiation,"[11]; AFHBA 15.6 μg/kg daily p.o., some potentiation at lowest doses of tyramine (footnote c)",1.0
same,Tyramine Potentiation,[11]; AFHBA 62.5 μg/kg daily p.o.,4.0
same,Tyramine Potentiation,[11]; AFHBA 250 μg/kg daily p.o.,7.1
same,Tyramine Potentiation,[11]; AFHBA 1000 μg/kg daily p.o.,7.7
same,"% Change from Control, 5-HIAA",[12]; [22],-48%
same,"% Change from Control, 5-HT",[12]; [22],+92%
same,"% Change from Control, DOPAC",[12]; [22],-92%
same,"% Change from Control, Dopamine",[12]; [22],+50%
same,"% Change from Control, 5-HIAA",[12]; [23],-37%
same,"% Change from Control, 5-HT",[12]; [23],+92%
same,"% Change from Control, DOPAC",[12]; [23],-89%
same,"% Change from Control, Dopamine",[12]; [23],+54%
same,"% Change from Control, 5-HIAA",[12]; [24],-34%
same,"% Change from Control, 5-HT",[12]; [24],+30%
same,"% Change from Control, DOPAC",[12]; [24],-76%
same,"% Change from Control, Dopamine",[12]; [24],+25%
same,"MAO inhibition, liver, MFMD pretreatment",MAO,totally blocked MAO inhibition
